Experimental data from paper PMC8869400, “Inhibition Mechanism of Components Isolated from Morus alba Branches on Diabetes and Diabetic Complications via Experimental and Molecular Docking Analyses” (Antioxidants, 2022).
Values after ≈ are worked out from the molar mass of the structure shown. Where two headings read alike, the source gives them in different places.

Tests used:
AGE formation = assay: In vitro assay for inhibition of AGE formation (BSA-fructose/glucose fluorescence); format: biochemical; details: for IC50: read-out: AGEs IC50
Method: The inhibition of AGE formation was evaluated using a modification of a previously published method. To prepare the reaction solution, 10 mg/mL of bovine serum albumin was added to 0.2 M fructose, 0.2 M glucose, and […] sodium azide. The reaction solution was mixed with various concentrations of the samples dissolved in 10% DMSO until the total volume was 1 mL. After an 8-day incubation at 37 °C, the fluorescence intensity of the reaction products was measured using a VERSA MAX GEMINI XPS fluorescence microplate reader (Molecular Devices) with excitation and emission wavelengths of 350 nm and 450 nm, respectively. After obtaining the results, we determined the IC50 values as the result on day 4. Aminoguanidine hydrochloride was used as the positive control.

PTP1B [1] = biological target: T1, PTP1B (Homo sapiens, UniProt P18031); assay: In vitro assay for PTP1B inhibitory activity (pNPP); format: biochemical
T1 construct: purchased Enzo Life Sciences
T1 sequence (P18031 1-435): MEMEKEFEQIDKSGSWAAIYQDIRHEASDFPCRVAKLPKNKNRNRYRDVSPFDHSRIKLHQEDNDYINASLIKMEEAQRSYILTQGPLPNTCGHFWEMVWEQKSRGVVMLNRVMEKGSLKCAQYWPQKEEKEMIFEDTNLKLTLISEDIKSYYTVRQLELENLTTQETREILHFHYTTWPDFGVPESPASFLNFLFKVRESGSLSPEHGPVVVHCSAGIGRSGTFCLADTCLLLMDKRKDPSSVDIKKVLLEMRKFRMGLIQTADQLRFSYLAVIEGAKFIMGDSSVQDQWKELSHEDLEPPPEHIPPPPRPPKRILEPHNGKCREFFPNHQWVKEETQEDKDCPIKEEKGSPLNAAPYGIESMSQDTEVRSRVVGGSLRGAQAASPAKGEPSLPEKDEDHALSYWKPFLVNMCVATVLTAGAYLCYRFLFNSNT

[2] = In vitro assay for peroxynitrite scavenging activity (DHR 123); details: mean ± SD of triplicate experiments; for IC50: read-out: ONOO− IC50
Method: The ONOO^− scavenging activity assay was conducted using a previously published method that involved measuring highly fluorescent rhodamine 123, which is rapidly converted from non-fluorescent DHR 123 in the presence of ONOO^−. Briefly, the rhodamine buffer (pH 7.4) was composed of 100 μM DTPA and 5 μM DHR 123. The assay buffer was prepared prior to use and placed on ice. The fluorescence intensity of the oxidized DHR 123 in the background and sample was measured 30 s after treatment with (and without) 200 μM authentic ONOO^−. The fluorescence intensity of the oxidized DHR 123 was measured using a VERSA MAX GEMINI XPS fluorescence microplate reader (Molecular Devices., CA, USA) at excitation and emission wavelengths of 485 and 530 nm, respectively. L-Penicillamine was used as the positive control.

α-glucosidase = biological target: T2, α-glucosidase (Saccharomyces cerevisiae, UniProt P53341); assay: Kinetic study for α-glucosidase inhibition (Lineweaver–Burk and Dixon plots); format: biochemical; details: for α-Glucosidase Inhibition Mode: determined using Lineweaver–Burk plots
T2 construct: purchased Sigma-Aldrich Chemical Company
T2 sequence (P53341 whole entry): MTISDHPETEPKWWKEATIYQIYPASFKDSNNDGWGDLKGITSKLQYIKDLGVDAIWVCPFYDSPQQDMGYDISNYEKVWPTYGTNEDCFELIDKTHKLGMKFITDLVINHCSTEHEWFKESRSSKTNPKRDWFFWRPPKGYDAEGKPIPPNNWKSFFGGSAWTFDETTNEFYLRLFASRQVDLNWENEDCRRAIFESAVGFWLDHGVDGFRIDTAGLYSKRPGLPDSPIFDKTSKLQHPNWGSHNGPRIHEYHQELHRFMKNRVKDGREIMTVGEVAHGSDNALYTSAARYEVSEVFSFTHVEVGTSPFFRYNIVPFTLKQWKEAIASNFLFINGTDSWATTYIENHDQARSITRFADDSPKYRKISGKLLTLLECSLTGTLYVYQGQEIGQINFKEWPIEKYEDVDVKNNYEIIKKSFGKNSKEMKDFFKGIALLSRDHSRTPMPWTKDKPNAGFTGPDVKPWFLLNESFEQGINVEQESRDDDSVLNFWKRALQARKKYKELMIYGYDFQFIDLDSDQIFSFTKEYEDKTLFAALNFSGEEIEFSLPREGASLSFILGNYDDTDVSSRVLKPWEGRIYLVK

PTP1B [3] = biological target: T1, PTP1B; assay: Kinetic study for PTP1B inhibition (Lineweaver–Burk and Dixon plots); format: biochemical; details: for PTP1B Inhibition Mode: determined using Lineweaver–Burk plots
PTP1B [4] = biological target: T1, PTP1B; details: at 20 μg/mL; ref 43 (Zhao et al.); cited from earlier work
[5] = mean ± SD of triplicate experiments, result on day 4
[6] = mean ± SD of triplicate experiments, read-out: PTP1B IC50
[7] = determined using Dixon plots, read-out: α-Glucosidase Ki
[8] = determined using Dixon plots, read-out: PTP1B Ki

Compound	IC50 (AGE formation; [5]) [µM]	IC50 (PTP1B [1]; [6]) [µM]	IC50 [2] [µM]	Ki (α-glucosidase; [7]) [µM]	α-Glucosidase Inhibition Mode (α-glucosidase)	also measured
Cl.N=C(N)NN [Aminoguanidine, Aminoguanidine hydrochloride, reference compound]	890 ± 70.2	–	–	–	–	IC50 Values AGEs (AGE formation; [5]): 52.62 ± 6.70 µg/mL
O=C1c2c(O)cc(O)cc2O[C@H](c2ccc(O)cc2O)[C@H]1O [Dihydromorin (3), Dihydromorin]	118 ± 7.89	180	2.26 ± 0.12	10.2	Mixed	–
CC(C)=CCc1c(-c2ccc(O)cc2O)oc2c(CC=C(C)C)c(O)cc(O)c2c1=O [Kuwanon C (1), Kuwanon C]	> 100	41.4 ± 1.64	12.9 ± 0.68	6.85	Mixed	inhibitory activity on AGE formation (AGE formation; at 100 μg/mL): no inhibitory activity on AGE formation; Ki (PTP1B [3]; [8]): 39.4 µM; PTP1B Inhibition Mode (PTP1B [3]): Non-competitive; PTP1B inhibition (PTP1B [4]): 58%
CC(C)=CCc1c(-c2ccc(O)cc2O)oc2c(C3C=C(C)CC(c4ccc(O)cc4O)C3C(=O)c3ccc(O)cc3O)c(O)cc(O)c2c1=O (stereo not drawn) [Kuwanon G (7), Kuwanon G]	69.1 ± 1.49	16.2 ± 0.29	6.35 ± 0.36	–	Mixed	Ki (PTP1B [3]; [8]): 12.4 µM; PTP1B Inhibition Mode (PTP1B [3]): Mixed; PTP1B Inhibition Mode (PTP1B [3]; listed as kuwanon G (7)): mixed-type; Ki (α-glucosidase): 2.03 µM
CC(C)(S)[C@H](N)C(=O)O [L-Penicillamine, reference compound]	–	–	6.69 ± 0.52	–	–	IC50 Values ONOO− [2]: 1.37 ± 0.19 µg/mL (≈ 9.18 µM)
Oc1cc(O)cc(-c2cc3ccc(O)cc3o2)c1 [Moracin M (2), Moracin M]	2.1 ± 0.22	333 ± 20.5	1.08 ± 0.04	3.32	Mixed	–
O=c1cc(-c2ccc(O)cc2O)oc2cc(O)cc(O)c12 [Norartocarpetin (6), Norartocarpetin]	77.3 ± 9.58	> 100	3.01 ± 0.15	19.9	Mixed	PTP1B-inhibitory activity (PTP1B [1]; at 100 μg/mL): no PTP1B-inhibitory activity; IC50 (PTP1B [1]; mean ± SD of triplicate experiments, read-out: IC50 Values PTP1B): > 349 µM; PTP1B inhibition (PTP1B [4]): 20%
Oc1cc(O)cc(/C=C/c2ccc(O)cc2O)c1 [Oxyresveratrol (5), Oxyresveratrol]	7.56 ± 0.15	–	2.37 ± 0.21	–	Mixed	IC50 (PTP1B [1]; PTP1B IC50, mean ± SD of triplicate experiments): 2.85 ± 0.3 µM; Ki (PTP1B [3]): 2.16 µM; Ki (α-glucosidase): 1.14 µM
